Measured values published in the supplement of paper PMC5908809.

How the values were obtained:
[1] = system: normal NK cells expanded with K562-aAPC; experiment: drug sensitivity score (DSS) (DSS units); higher = more sensitive; extreme values may be limits of the assay; conditions: 72 h; IL-2 2.5 ng/mL
Description: (§1)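 Drug sensitivity and resistance testing on K562-aAPC-expanded normal NK cells: 5 concentrations (10-fold steps over a 10,000-fold range), 72 h at 37 °C, viability by CellTiter-Glo normalised to DMSO and benzethonium chloride controls; DSS from the fitted curve.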

[2] = system: normal NK cells expanded with K562-aAPC; experiment: percent inhibition of viability; higher = more inhibition; conditions: 72 h, IL-2 2.5 ng/mL
Description: as §1

[3] = system: NK-YS (IL-2 2.5 ng/mL); experiment: as above; conditions: 72 h
[4] = system: NKL (IL-2 2.5 ng/mL); experiment: as above; conditions: 72 h
[5] = system: KAI3 (IL-2 2.5 ng/mL); experiment: as above; conditions: 72 h
[6] = system: normal primary NK cells, pool 3 (3 donors) (IL-2 2.5 ng/mL); experiment: as above; conditions: 72 h
[7] = system: SNK-6 (IL-2 2.5 ng/mL); experiment: as above; conditions: 72 h
[8] = system: normal primary NK cells, pool 2 (3 donors) (IL-2 2.5 ng/mL); experiment: as above; conditions: 72 h
[9] = system: normal primary NK cells, pool 1 (3 donors), resting (IL-2 0 ng/mL); experiment: as above; conditions: 72 h
[10] = system: YT (IL-2 2.5 ng/mL); experiment: as above; conditions: 72 h
[11] = system: NK-92 (IL-2 2.5 ng/mL); experiment: as above; conditions: 72 h
[12] = system: DERL-7 (IL-2 2.5 ng/mL); experiment: as above; conditions: 72 h
[13] = system: normal primary NK cells, pool 1 (3 donors) (IL-2 2.5 ng/mL); experiment: as above; conditions: 72 h
[14] = system: KHYG-1 (IL-2 2.5 ng/mL); experiment: as above; conditions: 72 h
[15] = system: IMC-1 (IL-2 20 ng/mL); experiment: as above; conditions: 72 h
[16] = system: NK-YS (IL-2 2.5 ng/mL); experiment: drug sensitivity score (DSS) (DSS units); higher = more sensitive; extreme values may be limits of the assay; conditions: 72 h
[17] = system: NKL (IL-2 2.5 ng/mL); experiment: as above; conditions: 72 h
[18] = system: KAI3 (IL-2 2.5 ng/mL); experiment: as above; conditions: 72 h
[19] = system: normal primary NK cells, pool 3 (3 donors) (IL-2 2.5 ng/mL); experiment: as above; conditions: 72 h
[20] = system: SNK-6 (IL-2 2.5 ng/mL); experiment: as above; conditions: 72 h
[21] = system: normal primary NK cells, pool 2 (3 donors) (IL-2 2.5 ng/mL); experiment: as above; conditions: 72 h
[22] = system: normal primary NK cells, pool 1 (3 donors), resting (IL-2 0 ng/mL); experiment: as above; conditions: 72 h
[23] = system: YT (IL-2 2.5 ng/mL); experiment: as above; conditions: 72 h
[24] = system: NK-92 (IL-2 2.5 ng/mL); experiment: as above; conditions: 72 h
[25] = system: DERL-7 (IL-2 2.5 ng/mL); experiment: as above; conditions: 72 h
[26] = system: normal primary NK cells, pool 1 (3 donors) (IL-2 2.5 ng/mL); experiment: as above; conditions: 72 h
[27] = system: KHYG-1 (IL-2 2.5 ng/mL); experiment: as above; conditions: 72 h
[28] = system: IMC-1 (IL-2 20 ng/mL); experiment: as above; conditions: 72 h

O=C(NOCCO)c1ccc2cncn2c1Nc1ccc(I)cc1F [GDC-0623] (max concentration tested 2500 nM)
Conditions | drug sensitivity score
[1] | 0
[16] | 0.81
[17] | 16.7
[18] | 2.53
[19] | 0
[20] | 0
[21] | 0.54
[22] | 0.97
[23] | 0
[24] | 0.89
[25] | 4.82
[26] | 0.57
[27] | 13
[28] | 0.89

percent inhibition of viability [%]
Conditions | 0.25 nM | 2.5 nM | 25 nM | 250 nM | 2500 nM
[2] | -1.46 | -4.58 | 0.15 | 3.69 | -1.38
[3] | -3.81 | -3.05 | 2.89 | 12.4 | 10.4
[4] | -5.9 | -3.61 | 37.9 | 65.4 | 62.6
[5] | -1.35 | 0.84 | 4.63 | 16.2 | 24.8
[6] | -5.35 | -2.96 | -2.99 | 19.2 | 1.26
[7] | 6.88 | -4.38 | -13.8 | -14.5 | -33.3
[8] | 0.23 | -3.52 | 5.29 | 8.89 | 14.6
[9] | -7.6 | 7.27 | 7.92 | 9.81 | 15.9
[10] | 0.15 | -1.83 | -0.28 | 6.96 | -0.89
[11] | -2.15 | -3.76 | -6.69 | -7.14 | -20.9
[12] | 1.53 | 2.87 | 4.11 | 20.2 | 49.3
[13] | -9.21 | -4.95 | 0.24 | 3.46 | 15.2
[14] | -2.63 | 1.52 | 26.2 | 53.6 | 53.1
[15] | -4.83 | -0.98 | -7.63 | -7.39 | -5.55

CO[C@H](C(=O)[C@@H](O)[C@@H](C)O)[C@@H]1Cc2cc3cc(O[C@H]4C[C@@H](O[C@@H]5C[C@@H](O)[C@H](O)[C@@H](C)O5)[C@H](O)[C@@H](C)O4)c(C)c(O)c3c(O)c2C(=O)[C@H]1O[C@H]1C[C@@H](O[C@@H]2C[C@@H](O)[C@@H](O[C@@H]3C[C@](C)(O)[C@H](O)[C@@H](C)O3)[C@@H](C)O2)[C@H](O)[C@@H](C)O1 [Plicamycin] (max concentration tested 10000 nM)
Conditions | drug sensitivity score
[1] | 7.76
[16] | 31.2
[17] | 29.5
[18] | 25.2
[19] | 12.1
[20] | 34.5
[21] | 12.3
[22] | 20.4
[23] | 30.5
[24] | 19.7
[25] | 28.2
[26] | 22.1
[27] | 28.6
[28] | 13.4

percent inhibition of viability [%]
Conditions | 1 nM | 10 nM | 100 nM | 1000 nM | 10000 nM
[2] | -1.48 | 0.95 | 3.45 | 18.5 | 86.7
[3] | -4.88 | 6.73 | 97.1 | 106 | 108
[4] | -8.9 | -9.19 | 97.5 | 108 | 110
[5] | -19.1 | -16.3 | 61.1 | 93.9 | 106
[6] | -7.87 | -12.9 | 5.62 | 56.1 | 95.4
[7] | 6.54 | 44 | 92.3 | 98.5 | 97.8
[8] | -13 | -9.37 | 5.25 | 58.7 | 91.9
[9] | -24.1 | -3.24 | 28.7 | 88.3 | 89.5
[10] | -0.6 | 0.99 | 99 | 109 | 110
[11] | -10.9 | -13.5 | 17.8 | 94.4 | 108
[12] | 0.06 | -2.61 | 86.8 | 101 | 101
[13] | -2.64 | -1.48 | 31 | 97.5 | 98.2
[14] | -6.39 | 2.63 | 87.8 | 106 | 110
[15] | -2.17 | -0.08 | -16.4 | 69.3 | 100

CC(C)(C)c1nc(-c2cccc(NS(=O)(=O)c3c(F)cccc3F)c2F)c(-c2ccnc(N)n2)s1 [Dabrafenib] (max concentration tested 2500 nM)
Conditions | drug sensitivity score
[1] | 0
[16] | 0
[17] | 0.89
[18] | 1.13
[19] | 0.89
[20] | 0
[21] | 0.89
[22] | 3.85
[23] | 0.64
[24] | 0.89
[25] | 1.38
[26] | 0
[27] | 13.4
[28] | 0

percent inhibition of viability [%]
Conditions | 0.25 nM | 2.5 nM | 25 nM | 250 nM | 2500 nM
[2] | -3.8 | -9.82 | -8.95 | -1.61 | 6.4
[3] | -4.15 | -0.92 | 0.04 | -2.02 | 0.94
[4] | -14.1 | -19.1 | -20.9 | -29.2 | -29.9
[5] | -6.1 | 1.01 | 2.43 | -4.3 | 31.2
[6] | -9.2 | -8.52 | -4.83 | -5.01 | -0.02
[7] | -5.34 | 1.84 | -12.1 | 0.17 | 0
[8] | -9.64 | -5.28 | -9.79 | -4.67 | -5.57
[9] | -10.3 | -11.7 | 7.48 | 10 | 45
[10] | -0.07 | -0.32 | 0.19 | 3.06 | 16.2
[11] | -8.16 | -11.7 | -14.1 | -7.91 | -1.09
[12] | 3.06 | 5 | -0.47 | -3.32 | 34.5
[13] | -7.46 | -6.18 | -4.85 | -3.22 | 3.89
[14] | -2.85 | -0.1 | 2.78 | 71.5 | 30.8
[15] | -5.61 | -2.47 | -3.07 | -7.52 | 8.46

C[C@]12CC[C@@H]3c4ccc(O)cc4C[C@@H](CCCCCCCCC[S+]([O-])CCCC(F)(F)C(F)(F)F)[C@H]3[C@@H]1CC[C@@H]2O (stereo partly specified) [Fulvestrant] (max concentration tested 1000 nM)
Conditions | drug sensitivity score
[1] | 0
[16] | 0.29
[17] | 3.35
[18] | 1.68
[19] | 0
[20] | 0
[21] | 0
[22] | 2.33
[23] | 1.09
[24] | 1.6
[25] | 0
[26] | 0
[27] | 0
[28] | 0.29

percent inhibition of viability [%]
Conditions | 0.1 nM | 1 nM | 10 nM | 100 nM | 1000 nM
[2] | -7.38 | -10.5 | -9.28 | -0.53 | 6.13
[3] | -4.05 | -5.76 | -3.52 | 0.56 | 15.3
[4] | -3.73 | 1.23 | 1.02 | 9.49 | 38.2
[5] | -10.2 | -0.09 | 8.43 | 5.9 | 26.5
[6] | 6.08 | 3.62 | 2.89 | -5.25 | -3.36
[7] | -16.9 | 6.87 | -25.7 | -23.9 | -13.9
[8] | -0.86 | -4.87 | 4.79 | 2.49 | 3.75
[9] | 7.52 | -6.84 | 15.3 | 7.9 | 31.3
[10] | -6.18 | 3.96 | 7.53 | -1.76 | 28.7
[11] | -8.22 | -4.79 | -0.7 | -0.61 | 35.1
[12] | -6.65 | 4.87 | 1.14 | -1.33 | 2.61
[13] | -3.4 | -8.82 | 2.76 | -0.05 | -2.99
[14] | -10.8 | -4.41 | -2.37 | -6.26 | 7.16
[15] | -8.22 | -3.8 | -1.67 | -1.37 | 16.7
